From patent publication US4200635A, “Antibacterially active amides” (Beecham Group Limited, priority 1977, dated 1980)
In brackets after ≈: the same amount, converted by molar mass.

Experiments:
[1] = test system: Pasteurella multocida 1633; assay: MIC, serial dilution in nutrient agar, human bacteria; assay type: cell-based; conditions: nutrient agar containing 5% chocolated horse blood
[2] = test system: Haemophilus influenzae Q1; assay: as above; assay type: cell-based; conditions: nutrient agar containing 5% chocolated horse blood
[3] = test system: Haemophilus influenzae Wy21; assay: as above; assay type: cell-based; conditions: Haemophilus influenzae Wy21; nutrient agar containing 5% chocolated horse blood; read-out: M.I.C.
[4] = test system: Neisseria flavescens 8263; assay: as above; assay type: cell-based; conditions: nutrient agar containing 5% chocolated horse blood
[5] = test system: Bacillus subtilis 6633; assay: as above; assay type: cell-based; conditions: Bacillus subtilis 6633; nutrient agar containing 5% chocolated horse blood; read-out: M.I.C.
[6] = test system: Staph. aureus Oxford; assay: as above; assay type: cell-based; conditions: Staphylococcus aureus; Staph. aureus Oxford; nutrient agar containing 5% chocolated horse blood; read-out: M.I.C.
[7] = test system: Staph. aureus Russell; assay: as above; assay type: cell-based; conditions: Staphylococcus aureus; Staph. aureus Russell; nutrient agar containing 5% chocolated horse blood; read-out: M.I.C.
[8] = test system: Strep. pneumoniae CN33; assay: as above; assay type: cell-based; conditions: Streptococcus pneumoniae; Strep. pneumoniae CN33; nutrient agar containing 5% chocolated horse blood; read-out: M.I.C.
[9] = test system: Bord. bronchiseptica BO9; assay: MIC, veterinary bacteria; assay type: cell-based; conditions: Bordetella bronchiseptica, BO9
[10] = test system: Past. multocida PAI; assay: MIC, veterinary bacteria; assay type: cell-based; conditions: Pasteurella multocida; Past. multocida PAI; read-out: M.I.C.
[11] = test system: Past. haemolytica PA5; assay: MIC, veterinary bacteria; assay type: cell-based; conditions: Mannheimia haemolytica, PA5
[12] = test system: Staph. aureus B4; assay: MIC, veterinary bacteria; assay type: cell-based; conditions: Staphylococcus aureus; Staph. aureus B4; read-out: M.I.C.
[13] = test system: Staph. aureus 152; assay: MIC, veterinary bacteria; assay type: cell-based; conditions: Staphylococcus aureus
[14] = test system: Strep. uberis SPU 1; assay: MIC, veterinary bacteria; assay type: cell-based; conditions: Streptococcus uberis, SPU1; Strep. uberis SPU 1; read-out: M.I.C.
[15] = test system: Strep. dysgalactiae SPD 1; assay: MIC, veterinary bacteria; assay type: cell-based; conditions: Streptococcus dysgalactiae, SPD1; Strep. dysgalactiae SPD 1; read-out: M.I.C.
[16] = test system: M. dispar NCTC 10125; assay: in vitro MIC, anti-mycoplasmal activity; assay type: cell-based; conditions: Friis' broth, microtiter method
Description: (§1) Tables 3 and 4 show the in vitro MIC values (μg/ml) of the compounds of Examples 1 to 9 against a number of mycoplasma organisms, determined in Friis' broth using the microtiter method.

[17] = test system: M. fermentans MWKL4; assay: in vitro MIC, anti-mycoplasmal activity; assay type: cell-based; conditions: Mycoplasmopsis fermentans, Friis' broth, microtiter method
Description: as §1

[18] = test system: M. pulmonis JB; assay: in vitro MIC, anti-mycoplasmal activity; assay type: cell-based; conditions: Mycoplasmopsis pulmonis, Friis' broth, microtiter method
Description: as §1

[19] = test system: M. suipneumoniae J2206/183b; assay: in vitro MIC, anti-mycoplasmal activity; assay type: cell-based; conditions: Mesomycoplasma hyopneumoniae, Friis' broth, microtiter method
Description: as §1

[20] = test system: M. pneumoniae 427a; assay: in vitro MIC, anti-mycoplasmal activity; assay type: cell-based; conditions: Mycoplasmoides pneumoniae, Friis' broth, microtiter method
[21] = test system: certain Gram-positive and Gram-negative organisms; conditions: statement about monic acid A and its esters, earlier British applications; cited from earlier work

Work on `COC(=O)CNC(=O)C=C(C)CC1OCC(CC2OC2C(C)C(C)O)C(O)C1O` (stereo not drawn) [Example 3, Methoxycarbonylmethylamide of monic acid A] yielded an MIC [1] of 12.5 µg/mL (≈ 30.1 µM), an MIC [2] of 1.2 µg/mL (≈ 2.89 µM) and an MIC [3] of 1.2 µg/mL (≈ 2.89 µM). It also gave an MIC [4] of 25 µg/mL (≈ 60.2 µM), an MIC [5] of 25 µg/mL (≈ 60.2 µM) and an MIC [6] of 25 µg/mL (≈ 60.2 µM). For the same compound, the MIC [7] was 125 µg/mL (≈ 301 µM), the MIC [8] was 25 µg/mL (≈ 60.2 µM) and the MIC [9] was 5 µg/mL (≈ 12 µM). The MIC [10] was 10 µg/mL (≈ 24.1 µM), the MIC [11] was 5 µg/mL (≈ 12 µM) and the MIC [12] was 40 µg/mL (≈ 96.3 µM). The MIC [13] was over 80 µg/mL, the MIC [14] was 5 µg/mL (≈ 12 µM) and the MIC [15] was 1.25 µg/mL (≈ 3.01 µM). For the same compound, the MIC [16] was under 0.5 µg/mL, the MIC [17] was under 0.5 µg/mL and the MIC [18] was 62.5 µg/mL (≈ 150 µM). For the same compound, the MIC [19] was 7.8 µg/mL (≈ 18.8 µM) and the MIC [20] was 250 µg/mL (≈ 602 µM).
In the case of `CC(=CC(=O)O)CC1OCC(CC2OC2C(C)C(C)O)C(O)C1O` (stereo not drawn) [monic acid A], the antibacterial activity [21] is listed as “does not appear to have antibacterial activity”.
